Laboratory results as given in patent publication US20140328940A1, “MODULATION OF AXON DEGENERATION” (Genentech, Inc., priority 2009, published 2014).
“Also recorded” adds a separate entry of the source. *1 amine or outer side, *2 acyl side, *3 side chain or, on linkers, in order; H or OH if unused. Where a SMILES comes first, the peptide text is derived from it. Bridges are numbered along the chain shown (N, C = ends). Roman numbers before positions name the chains, in order. [ ]: non-standard residue; d: D form. Actinocin(9to1) = Cc1c2oc3c(C)ccc(C(=O)[*:1])c3nc-2c(C(=O)[*:2])c(N)c1=O; NMeV = CN[C@H](C(=O)O)C(C)C; Sar = CNCC(=O)O

Columns and labels:
Format in all cases: cell-based, mouse
DRGs [1] = test: anti-NGF antibody (NGF withdrawal) screen for inhibitors of axon degeneration in DRG explants; details: inhibitor 100 μM or 10 μM added 1 hour before 25 μg/ml anti-NGF; 20 hours; actin stain
Experimental: The anti-NGF antibody model described above in Example 1 was used in a screen for inhibitors of neuron or axon degeneration. A library of more than 400 small molecules (Tocris Bioscience) was tested to see which, if any, modulate degeneration observed in the presence of anti-NGF antibodies.
Mouse E13.5 embryos were dissected and placed into L15 medium (Invitrogen). The spinal cord was dissected out from the embryos with DRGs attached. The spinal cords with DRGs attached were placed into L15 medium+5% goat serum (Gibco) on ice. The DRGs were removed using a tungsten needle and the remaining spinal cord was disposed of. Eight well slides were filled with N3-F12 solution (23 ml Ham's F12, 1 ml N3 supplement, and 1 ml 1 M glucose) to which was added 25 ng/ml NGF (Roche). (N3 supplement was made by dilution of N3 100× concentrate, which was made by mixing the following ingredients, in the following order: 5.0 ml Hank's buffered saline solution (HBSS; Ca, Mg free; Invitrogen), 1.0 ml bovine serum albumin (10 mg/ml in HBSS=150 μm), 2.0 ml Transferrin (T1147-1G, human, 100 mg/ml in HBSS=1.1 mM), 1.0 ml sodium selenite (S9133-1MG, 0.01 mg/ml in HBSS 58 μM), 0.4 ml putrescine dihydrochloride (P5780-5G, 80 mg/ml in HBSS=500 mM), 0.2 ml progesterone (P8783-5G, 0.125 mg/ml in absolute ethanol=400 μM), 0.02 ml corticosterone (C2505-500MG, 2 mg/ml in absolute ethanol=5.8 mM), 0.1 ml triiodothyonine, sodium salt (T6397-100MG, 0.2 mg/ml in 0.01 N NaOH=300 μM), 0.4 ml insulin (16634-250MG, bovine pancreas, 241 U/mg, 25 mg/ml in 20 mM HCl=4.4 mM), for a total volume of 10.02 ml (can be stored at −20° C.). An N3 supplement stock was made by combining the following: 10 ml Pen/Strep (100×, Gibco), 10 ml glutamine (200 mM, Gibco), 10 ml MEM vitamins (100×, Gibco), 10 ml N3 concentrate (100×, see above), for a total volume of 40 ml. The mixture was filter sterilized using a 0.22 μm filter, and 1-2 ml aliquots were stored at −20° C.).
The DRGs were sectioned into halves and placed in the center of each well of an 8-chamber slide (BD Biocoat PDL/Laminin coated glass, Becton Dickinson). The DRGs were permitted to attach to the slide at room temperature for 5-10 minutes, followed by an overnight incubation at 37° C. Inhibitors of choice were added at a concentration of 100 μM (top row) or 10 μM (bottom row) 1 hour before adding anti NGF antibodies. The anti-NGF antibodies were added to the right half of the slide (4 wells) at a concentration of 25 μg/ml. After incubation for 20 hours at 37° C., the slides were fixed with 30% sucrose/8% paraformaldehyde (PFA) by adding 250 μl of the fix solution directly to the 250 μl of culture medium. (To make the 30% sucrose/8% PFA solution, the following ingredients were added to a 600 ml beaker including a stir bar: 250 ml 16% PFA (cat#15710-S, Electron Microscopy Sciences), 50 ml 10×PBS pH 7.4, and 150 g sucrose. The solution was mixed under low heat until dissolved, and then 6-8 drops of 1 M NaOH were added to bring the pH to 7.4. The volume was then brought to 500 ml with water in a graduated cylinder. The solution was mixed well, placed in aliquots, and frozen.) The s ides were fixed for 30 minutes, followed by washing once with PBS. All cells were labeled with an actin stain (Alexa-568 conjugated phalloidin; 1:40; Invitrogen), a membrane dye (DiO; 1:200; Invitrogen), and a DNA stain (Hoechst 33258; 1:10,000; Invitrogen) in 0.1% Triton and 1% goat serum for 2 hours at room temperature. […]

[2] = test system: DRG neurons (axon vs. cell body compartment); test: Campenot chamber local axon degeneration (anti-NGF in axon compartment)
Experimental: Teflon dividers (Tyler Research) were cleaned by washing in water and wiping them clean of any residual grease. Dividers were then soaked in Nochromix (Godax Laboratories)/sulfuric acid overnight, rinsed five times in distilled and autoclaved water (SQ water), boiled for 30 minutes, and then air-dried before use
Mouse laminin (5 μg/ml in sterile filtered water; Invitrogen) was added to PDL coated 35 mm dishes (BD Biosciences) and they were incubated for 1 hour at 37° C., followed by two rinses in SQ water. The dishes were vacuum-dried and then air-dried in a laminar flow hood for 15 minutes. Prepared dishes were then scored with a pin rake (Tyler Research). […] High vacuum grease (VWR) was added to each Teflon divider under a dissection scope. The laminin coated PDL dishes were inverted and dropped onto the Teflon divider, with additional pressure added by use of a toothpick in the non-track-containing regions. Dishes were incubated for 1 hour at 37° C. Five hundred microliters of NBM+MC (50 ng/ml NGF) solution was added to each of the side compartments, and a grease barrier was added in front of the center cell slot.
Free E13.5 spinal cords were dissected from mouse embryos and placed into NBM+MC (25 ng/ml NGF) solution. DRGs were detached from the spinal cord with a tungsten needle. An NBM+MC-lubricated P200 pipette was used to move DRGs into a 1.5 ml tube. DRGs were pelleted with a tabletop centrifuge for 30 seconds. The supernate was discarded and 0.05% Trypsin/EDTA (cold) was added. The pellet was resolubilized with a pipette and incubated at 37° C. for 15 minutes with constant agitation (650 RPM). The sample was again centrifuged and the supernate discarded. The pellet was resuspended in warm NBM+MC (50 ng/ml NGF) solution and triturated with a flamed glass pipette 20 times, followed by trituration with a fire-bored glass pipette another 20 times. The samples were again centrifuged and the resulting pellets were resuspended in 0.5 ml NBM+MC (50 ng/ml NGF) solution. The cells were diluted to a final concentration of 2.5×10^6 cells/ml. The cell suspensions were loaded into a 1 ml syringe with a 22 gauge needle. The center slot of the Campenot divider was filled using the syringe (to a volume of at least 50 μl). The Campenot chamber was incubated overnight at 37° C. 2.5 ml NGF+MC (50 ng/ml NGF) solution was added to the center compartment and the grease gate was removed. The outer medium (cell body compartment) was replaced after three days with 2.5 ml NBM+MC medium (with 25 ng/ml NGF). After five days in culture, one distal compartment was washed three times with warmed NBM+MC (no NGF) solution. After the third wash, 500 μl NBM+MC (no NGF) solution was added to the axon compartment in combination with either 0.5% DMSO or an inhibitor. The cell body compartment was replaced with 2.5 ml NBM+MC medium (with 25 ng/ml NGF) containing either 0.5% DMSO or inhibitor.
After 28 hours of anti-NGF antibody treatment, 8% PFA/30% sucrose solution (see above) was added directly to the culture medium at a 1:1 dilution and incubated for 30 minutes. The Teflon divider was removed after the first 15 minutes of addition. The system was washed once with 2.5 ml PBS prior to immunostaining. Neurons were blocked in 5% BSA/0.2% triton in PBS for 30 minutes. The primary antibody Tuj1 (Covance) was added to a final dilution of 1:1000 in PBS containing 2% BSA and incubated overnight at 4° C. The dish was washed once with PBS. […] The dish was washed twice with PBS, and a 22×22 mm coverslip (VWR) was added with 350 μl of fluoromount G (Electron Microscopy Sciences). The neurons were visualized by use of a fluorescence microscope.
As described above, E13.5 DRGs were isolated and grown for 5 days in a Campenot chamber.

DRG explants = test: pan-JNK inhibitors in NGF withdrawal assay on DRG explants; details: for concentration at which most protective: DRG explants, NGF withdrawal; for protection of DRG explants from NGF-dependent degeneration: treated with anti-NGF and inhibitor
Experimental: If DLK inhibition protects neurons from degeneration through limiting the phosphorylation of JNK2 and JNK3, then inhibitors of JNK2 or JNK3 should also protect neurons from cell death and axon degeneration. The ability of direct JNK inhibition to protect neurons against NGF withdrawal-dependent degeneration was also assessed. DRG explants were treated with anti-NGF and either pan-JNK inhibitor JNKV or JNKVIII, prior to assessment in the NGF withdrawal assay described above.

DRGs [3] = test: G-protein/GPCR inhibitors in NGF withdrawal-induced degeneration in DRGs; details: 0.1 μM, 1 μM, 10 μM or 100 μM (FIGS. 49 and 50)
Experimental: The assays described herein identified several inhibitors of G-proteins and G-protein coupled receptors (GPCRs) that decrease degeneration in neurons. Experiments were performed in DRGs to verify the role of G-proteins and GPCRs in degeneration pathways. The experimental protocols used in these experiments are the same as those described in Example 14. Pertussis toxin and SCH 202676 were purchased from Tocris Bioscience.

[4] = test system: cerebellar granule neurons (CGNs); test: serum deprivation/KCl reduction degeneration of cerebellar granule neurons; details: 5 μM; 5 mM KCl, 24 hours
[5] = inhibitor 5 μM in axon compartment
[6] = inhibitor 5 μM in cell body compartment

OC(CN1CCNCC1)Cn1c2ccc(Br)cc2c2cc(Br)ccc21 (centres unmarked) [Bax Channel Blocker]
Comments (observations on compounds found to protect against neurodegeneration) (DRGs [1]): Cell bodies detach

C[S+]([O-])c1ccc(-c2nc(-c3ccc(F)cc3)c(-c3ccncc3)[nH]2)cc1.Cl (centres unmarked) [SB 203580 HCl]
Comments (observations on compounds found to protect against neurodegeneration) (DRGs [1]): Partial

CCN(c1ccccc1)c1cc(NC)[n+](C)c(C)n1 [ZD7288]
Axon Compartment (protection of NGF-deprived axons) [2, 5]: No (3)
Cell Body Compartment (protection of NGF-deprived axons) [2, 6]: Yes (3)

C[C@@H](NC(=O)/C(C#N)=C/c1ccc(O)c(O)c1)c1ccccc1 [Tyrphostin B44]
Comments (observations on compounds found to protect against neurodegeneration) (DRGs [1]): Partial

C=C[C@@]1(C)CC(=O)[C@]2(O)[C@@]3(C)[C@@H](O)CCC(C)(C)[C@@H]3[C@H](OC(=O)CCN(C)C)[C@H](OC(C)=O)[C@@]2(C)O1 [NKH 477]
Comments (observations on compounds found to protect against neurodegeneration) (DRGs [1]): Partial

C[C@@H]1C[C@@H]([C@H](O)CC2CC(=O)NC(=O)C2)C(=O)[C@@H](C)C1 [Cycloheximide]
Axon Compartment (protection of NGF-deprived axons) [2, 5]: No (2)
Cell Body Compartment (protection of NGF-deprived axons) [2, 6]: Yes (2)

COc1ccc(CNC(=O)Nc2ncc([N+](=O)[O-])s2)cc1 [AR-A014418]
Axon Compartment (protection of NGF-deprived axons) ([2]; inhibitor 20 μM in axon compartment): No (1)
Cell Body Compartment (protection of NGF-deprived axons) ([2]; inhibitor 20 μM in cell body compartment): Yes (1)

CCOc1nc(NC(=O)Cc2cc(OC)ccc2OC)cc(N)c1C#N [JNKVIII]
concentration at which most protective (DRG explants): 4 µM
protection of DRG explants from NGF-dependent degeneration (DRG explants): able to protect

C=C[C@@]1(C)CC(=O)[C@]2(O)[C@@]3(C)[C@@H](O)CCC(C)(C)[C@@H]3[C@H](O)[C@H](OC(C)=O)[C@@]2(C)O1 [Forskolin]
Axon Compartment (protection of NGF-deprived axons) ([2]; inhibitor 3 μM in axon compartment): Yes (2)
Cell Body Compartment (protection of NGF-deprived axons) ([2]; inhibitor 3 μM in cell body compartment): Yes (2)

CN=c1nc(-c2ccccc2)n(-c2ccccc2)s1 [SCH 202676]
NGF withdrawal-induced degeneration in DRGs (DRGs [3]): decreases

O=C1NC(=O)C(c2cn(CCCO)c3ncccc23)=C1c1cnccn1 [GSK3 inhibitor XI]
Axon Compartment (protection of NGF-deprived axons) ([2]; inhibitor 30 μM in axon compartment, anti-NGF on axons 28 hours, number in parentheses not explained): No (2)
Cell Body Compartment (protection of NGF-deprived axons) ([2]; inhibitor 30 μM in cell body compartment, anti-NGF on axons 28 hours, number in parentheses not explained): Yes (2)

Cc1c2oc3c(C)ccc(C(=O)N[C@@H]4C(=O)N[C@H](C(C)C)C(=O)N5CCC[C@H]5C(=O)N(C)CC(=O)N(C)[C@@H](C(C)C)C(=O)O[C@@H]4C)c3nc-2c(C(=O)N[C@@H]2C(=O)N[C@H](C(C)C)C(=O)N3CCC[C@H]3C(=O)N(C)CC(=O)N(C)[C@@H](C(C)C)C(=O)O[C@@H]2C)c(N)c1=O [Actinomycin D] (I: T[dV]P[Sar][NMeV] / II: T[dV]P[Sar][NMeV]; ester I:1-I:C, II:1-II:C; linker I:N-II:N via Actinocin(9to1))
formation of varicosities in locally NGF-deprived axons [2]: large number of axons with varicosities, as well as fragmented axons
Axon Compartment (protection of NGF-deprived axons) ([2]; inhibitor 15 μM in axon compartment): No (4)
Axon Compartment (protection of NGF-deprived axons) ([2]; inhibitor 15 μM in axon compartment, listed as Act D): failed to prevent degeneration
Cell Body Compartment (protection of NGF-deprived axons) ([2]; inhibitor 15 μM in cell body compartment): Yes (4)
Cell Body Compartment (protection of NGF-deprived axons) ([2]; inhibitor 15 μM in cell body compartment, listed as Act D): did not degenerate; also recorded: protected from local degeneration

N#C/C(=C1/Nc2ccccc2S1)c1ccnc(NCCc2cccnc2)n1 [JNKV]
concentration at which most protective (DRG explants): 5 µM
protection of DRG explants from NGF-dependent degeneration (DRG explants): able to protect

O=C1c2ccccc2-c2n[nH]c3cccc1c23 [SP600125]
Axon Compartment (protection of NGF-deprived axons) [2, 5]: Yes (1)
Cell Body Compartment (protection of NGF-deprived axons) [2, 6]: Yes (1)
Axon Compartment (protection of NGF-deprived axons) ([2]; inhibitor 10 μM in axon compartment): Yes (1)
Cell Body Compartment (protection of NGF-deprived axons) ([2]; inhibitor 10 μM in cell body compartment): Yes (1)
protection of cerebellar granule neurons from serum deprivation/KCl reduction [4]: protect
